In patent US6528251B2, “Method of managing the chemotherapy of patients who are HIV positive based on the phenotypic drug sensitivity of human HIV strains” (Virco N.V., priority 1996, dated 2003):
Read-outs that look alike come from different tables or passages of the source.

Key:
Format in all cases: cell-based, HIV-1
[1] = system: recombinant virus from patient viral RNA (Example 10, drug-naive patient); assay: Recombinant virus assay (MT4/MTT), drug-naive patient of Example 10; settings: for IC50: Human immunodeficiency virus 1, Table 6, Example 10 patient virus; for ratio (1)/(2): Table 6, patient mean IC50 / recIIIB IC50, Example 10
Experimental: (§1) RNA was isolated from 100 μl of plasma according to the method described by Boom, R. et al. (1990, supra), and was reverse transcribed with the GeneAmp reverse transcriptase kit (Perkin Elmer) as described by the manufacturer and using an HIV-1 specific downstream primer (OUT3: 5′-CATTGCTCTCCAATTACTGTGATATTTCTCATC-3′; SEQ ID NO: 1). PCR on reverse transcribed RNA was performed with inner and outer primers as described by Kellam, P. and Larder, B. A. (1994, supra). After chloroform extraction and centrifugation on Centricon 100 columns or centrifugation on anion-exchange spin columns (Quiagen), the isolated PCR product was ready for use in the transfection reactions.
(§2) MT4 cells were subcultured at a density of 250,000 cells/ml before transfection (exponential growth phase). Cells were pelleted and resuspended in phosphate buffered saline (PBS) at a concentration of […]. A 0.8 ml portion (2.5 10E6 cells/ml) was used for each transfection. Transfection was performed with the Bio-Rad Gene pulser making use of 0.4 cm electrode cuvettes. Cells were electroporated in the presence of […] of linearised pHIVΔRT plasmid and approximately 5 μg of RT PCR product at 250SF and 300 V, followed by a 30-min incubation at room temperature. Subsequently, 10 ml of fresh culture medium was added to the cell suspension and incubation was performed at 37° C. in a humidified atmosphere of 5% CO2.
(§3) During 7 to 10 days following the transfection, cells were monitored for the appearance of cytopathogenic effect (CPE). In the absence thereof, cells were subcultured in different flasks. Subsequently, culture supernatants of transfected cells were used to create a stock of recombinant virus and stored in 1.5 ml aliquots at −70° C.
(§4) After titration of the new viruses, the stocks were used for antiviral experiments in the presence of serial dilutions of different HIV inhibitors. Titres of the harvested supematants were determined by limited serial dilution titration of virus in MT4 cells.
(§5) Viruses with a useful titre were used in antiviral experiments. For this purpose, 96-well microtitre plates were filled with 100μl of complete culture medium. Subsequently, stock solutions of compounds were added in 25 μl volumes to series of duplicate wells. HIV- and mock-infected cell samples were included for each drug (or drug combination). Exponentially growing MT4 cells were then transferred to the microtitre plates at a density of 150,000 cells/ml. The cell cultures were then incubated at 37° C. in a humidified atmosphere of 5% CO2. Five days after infection, the viability of the mock- and HIV-infected cells was examined spectrophotometrically by the M1T method (Pauwels, R. et al. J. Virol. Meth. (1988), 20: 309-321) as described in Section 6 below.
(§6) To each well of the microtiter plates, 20 μl of a solution of MTT (7.5 mg/ml in PBS) was added. The plates were further incubated at 37° C. for 1 h. Then, 150 μl of medium was removed without disturbing the MT4 cell clusters containing the formazan crystals. Solubilization of the formazan crystals was achieved by adding 100 μl 5% Triton X-100 in acidified isopropanol (5 ml concentrated HCl per liter solvent). Complete dissolution of the formazan crystals was obtained after the plates had been placed on a plate shaker for 10 min. Finally the absorbances were read at two wavelengths (540 and 690 nm). From these optical density (OD) data, 50% inhibitory (IC50) and 50% cytotoxic (CC50) concentrations were derived.
(§7) A drug-naive HIV-infected patient donated plasma whose susceptibility to a number of RT inhibitors and protease inhibitors was determined according to the protocol set out in Example 1. Recombinant wild type HIV strain recIIIB was used as a reference HIV virus.

[2] = system: recombinant virus from patient viral RNA (Example 11); assay: Recombinant virus assay (MT4/MTT), patient of Example 11 (therapy history RT and protease inhibitors); settings: for ratio (1)/(2): Table 7, patient mean IC50 / recIIIB IC50, Example 11
Experimental: as §1, §2, §3, §4, §5, §6
as §7, with “An HIV infected” for “A drug-naive HIV-infected”, “patient with a therapy history including RT and protease inhibitors” for “patient”, “recIIIb” for “recIIIB”

[3] = system: recombinant virus from patient viral RNA (Example 12); assay: Recombinant virus assay (MT4/MTT), patient of Example 12 (therapy history RT and protease inhibitors); settings: for ratio (1)/(2): Table 8, patient mean IC50 / recIIIB IC50, Example 12
Experimental: as §1, §2, §3, §4, §5, §6
An HIV infected patient with a therapy history including RT and protease inhibitors donated plasma whose susceptibility to a number of RT inhibitors and protease inhibitors was determined according to the protocol set out in Example 1.

[4] = system: recombinant virus from plasma of HIV-infected individuals on NNRTI long-term monotherapy; assay: Phenotyping of patients on NNRTI long-term monotherapy (Example 13), fold resistance
Experimental: as §4, §5, §6
Plasma samples were obtained from HIV-infected individuals who had been receiving non-nucleoside RT inhibitor (NNRTI) long-term monotherapy. HIV-RNA was extracted, reverse-transcribed and amplified as described in Example 1. Starting from outer PCR material of positive samples, the first 785 nucleotides of the RT gene were amplified and this material was further used for genotyping.
Amino acids changes at these positions are shown for each patient in the following rows. […] The right part of Table 9 presents the fold resistance to different RT inhibitors as determined by the method according to the invention for each of the patients' samples. NNRTI 1 is the non-nucleoside RT inhibitor that was administered to the patients.

[5] = MT4 cells, read-out: Anti-HIV-1 activity IC50 (μM) Exp. 1
[6] = MT4 cells, read-out: Anti-HIV-1 activity IC50 (μM) Exp. 2
[7] = mean, read-out: Anti-HIV-1 activity IC50 (μM) Mean (1)
[8] = Human immunodeficiency virus 1, MT4, read-out: Anti-HIV-1 activity IC50 (μM) Exp. 1
[9] = Human immunodeficiency virus 1, MT4, read-out: Anti-HIV-1 activity IC50 (μM) Exp. 2
[10] = Human immunodeficiency virus 1, read-out: Anti-HIV-1 activity IC50 (μM) Mean (1)
[11] = Patient 4, no resistance associated mutation
[12] = Patient 5, no resistance associated mutation
[13] = Patient 11, RT mutations M41L, D67N, K70R, K103N, M184V, T215F, K219Q
[14] = Patient 12, RT mutations M41L, T215Y
[15] = Patient 13, RT mutations K101E, K103K/N, E138A, G190G/A
[16] = Patient 16, RT mutations K103N, M184V

| SMILES | IC50 [1, 5] [µM] | IC50 [1, 6] [µM] | IC50 [1, 7] [µM] | ratio (1)/(2) [1] | ratio (1)/(2) [2] | ratio (1)/(2) [3] | FOLD RESISTANCE TO ([4]; Patient 1, RT mutation K103N) [fold] | FOLD RESISTANCE TO ([4]; Patient 2, RT mutation K103S) [fold] | FOLD RESISTANCE TO ([4]; Patient 3, RT mutation K103N) [fold] | FOLD RESISTANCE TO [4, 11] [fold] | FOLD RESISTANCE TO [4, 12] [fold] | FOLD RESISTANCE TO ([4]; Patient 6, RT mutation K103N) [fold] | FOLD RESISTANCE TO ([4]; Patient 7, RT mutation K103S) [fold] | FOLD RESISTANCE TO ([4]; Patient 8, RT mutation K103N) [fold] | FOLD RESISTANCE TO ([4]; Patient 9, RT mutation Y181C) [fold] | FOLD RESISTANCE TO ([4]; Patient 10, RT mutation K103N) [fold] | FOLD RESISTANCE TO [4, 13] [fold] | FOLD RESISTANCE TO [4, 14] [fold] | FOLD RESISTANCE TO [4, 15] [fold] | FOLD RESISTANCE TO ([4]; Patient 14, RT mutation K103N) [fold] | other results |
| --- | --- | --- | --- | --- | --- | --- | --- | --- | --- | --- | --- | --- | --- | --- | --- | --- | --- | --- | --- | --- | --- |
| Nc1ccn([C@@H]2CS[C@H](CO)O2)c(=O)n1 [3TC, lamivudine] | 1.53 | 1.72 | 1.62 | 0.4 | 19 | 22 | 1 | 0.4 | 1 | 0.1 | 0.4 | 0.3 | 0.04 | 1 | 1 | 0.1 | >8 | 2 | 1 | 1 | IC50 [2, 8]: > 100 µM; IC50 [2, 9]: 94 µM; IC50 [2, 10]: ≥ 97 µM; IC50 [3, 8]: > 100 µM; IC50 [3, 9]: > 100 µM; IC50 [3, 10]: > 100 µM; FOLD RESISTANCE TO ([4]; Patient 15, RT mutation K103N): 1 fold; FOLD RESISTANCE TO [4, 16]: >8 fold; FOLD RESISTANCE TO ([4]; Patient 17, RT mutation K103N): 1 fold; FOLD RESISTANCE TO ([4]; Patient 18, RT mutation K103S): 1 fold; FOLD RESISTANCE TO ([4]; Patient 19, RT mutation K103N): 1 fold; FOLD RESISTANCE TO ([4]; Patient 20, RT mutation A98G): 1 fold; FOLD RESISTANCE TO ([4]; Patient 21, RT mutation K103N): 0.4 fold; FOLD RESISTANCE TO ([4]; Patient 22, RT mutation V108I): 0.4 fold; FOLD RESISTANCE TO ([4]; Patient 23, RT mutation K103N): 0.2 fold; FOLD RESISTANCE TO ([4]; Patient 24, RT mutation K101Q): 1 fold |
| Cc1cn([C@H]2C[C@H](N=[N+]=[N-])[C@@H](CO)O2)c(=O)[nH]c1=O [AZT, zidovudine] | 0.019 | 0.019 | 0.019 | 0.5 | 0.3 | 88 | 1 | 1 | 0.4 | 0.3 | 1 | 1 | 1 | 1 | 2 | 0.4 | 94 | 28 | 1 | 1 | IC50 ([2]; Human immunodeficiency virus 1, Table 7, Example 11 patient virus, MT4 cells, read-out: Anti-HIV-1 activity IC50 (μM) Exp. 2): 0.015 µM; IC50 ([2]; Human immunodeficiency virus 1, Table 7, Example 11 patient virus, mean, read-out: Anti-HIV-1 activity IC50 (μM) Mean (1)): 0.015 µM; susceptibility of the patient's HIV strain (in words) ([3]; Example 12 patient, conclusion from Table 8): decreased susceptibility; IC50 ([3]; Human immunodeficiency virus 1, Table 8, Example 12 patient virus, MT4 cells, read-out: Anti-HIV-1 activity IC50 (μM) Exp. 1): 3.83 µM; IC50 ([3]; Human immunodeficiency virus 1, Table 8, Example 12 patient virus, MT4 cells, read-out: Anti-HIV-1 activity IC50 (μM) Exp. 2): 3.35 µM; IC50 ([3]; Human immunodeficiency virus 1, Table 8, Example 12 patient virus, mean, read-out: Anti-HIV-1 activity IC50 (μM) Mean (1)): 3.59 µM; FOLD RESISTANCE TO ([4]; Patient 15, RT mutation K103N): 2 fold; FOLD RESISTANCE TO [4, 16]: 1 fold; FOLD RESISTANCE TO ([4]; Patient 17, RT mutation K103N): 1 fold; FOLD RESISTANCE TO ([4]; Patient 18, RT mutation K103S): 1 fold; FOLD RESISTANCE TO ([4]; Patient 19, RT mutation K103N): 1 fold; FOLD RESISTANCE TO ([4]; Patient 20, RT mutation A98G): 0.4 fold; FOLD RESISTANCE TO ([4]; Patient 21, RT mutation K103N): 1 fold; FOLD RESISTANCE TO ([4]; Patient 22, RT mutation V108I): 1 fold; FOLD RESISTANCE TO ([4]; Patient 23, RT mutation K103N): 0.2 fold; FOLD RESISTANCE TO ([4]; Patient 24, RT mutation K101Q): 1 fold |
